# From patent US5140044A, “UCN-1028D derivatives” (Kyowa Hakko Kogyo Co., Ltd., priority 1989, dated 1992)
# Tests used:
# Protein Kinase C = assay: Protein kinase C inhibitory activity (method of Kikkawa et al.; crude enzyme from rat brain, Histone Type II S phosphorylation); format: biochemical; conditions: crude enzyme partially purified from rat brain; [γ-32P]ATP, 30° C., 3 minutes, pH 7.5
# Procedure: Protein kinase C inhibitory activity
# The protein kinase C inhibitory activity was measured by the method of Kikkawa, et al. [Journal of Biological Chemistry, 257, 13341 (1982)].
# That is, 10 μl of a test solution containing a UCN-1028D derivative was added to 250 μl of a solution containing 2.5 μmoles of magnesium acetate, 50 μg of Histone Type II S (manufactured by Sigma Co., Ltd.), 20 μg of phosphatidyl serine, 0.8 μg of diolein, 25 nmoles of CaCl2, 5 μg of crude enzyme (partially purified from rat brain according to the method of Kikkawa, et al.) and 5 μmoles of Tris-hydrochloride buffer (pH 7.5), followed by incubation at 30° C. for 3 minutes. Then, phosphorylation was initiated by addition of 1.25 nmoles of [γ-^32 P]ATP (5 to 10×10^3 cpm/nmole), followed by incubation at 30° C. for 3 minutes The reaction was stopped by adding 25% trichloroacetic acid (TCA), and the reaction solution was filtered through a cellulose acetate membrane (pore size: 0.45 μm) (manufactured by Toyo Filter Paper Co., Ltd.). After the membrane was washed four times with 5% TCA, radioactivity remaining on the membrane was measured. As a control, the same procedure as above was repeated without addition of the test solution and radioactivity was likewise measured. The concentration of the test solution showing 50% inhibition as compared with the control was expressed as IC50.
# BALB 3T3/H-ras = assay: Anti-tumor activity: growth inhibition of BALB 3T3 cells transformed with H-ras (Giemsa staining); format: cell-based; conditions: Mus musculus, BALB/3T3, 72 h, read-out: IC50 BALB 3T3/H-ras Inhibitory Activity
# Procedure: The anti-tumor activity was determined using BALB 3T3 cells transformed with the carcinogenic gene H-ras (hereafter referred to as BALB 3T3/H-ras).
# BALB 3T3/H-ras cells were suspended in a medium comprising DME medium (manufactured by Nissui Pharmaceutical Co., Ltd.) and 10% fetal calf serum (hereafter referred to as medium A) to a concentration of 3.0×10^4 /cells ml. The cell suspension thus prepared was put into wells of a 96-well microtiter plate in an amount of 0.1 ml per well. After culturing at 37° C. for 20 hours in a CO2 -incubator, 0.1 ml each of a test solution appropriately diluted with medium A was added to each well. The cells were further cultured at 37° C. for 72 hours in the CO2 -incubator and the culture supernatant was removed. After being washed once with physiological saline, the residue was treated with 0.1 ml of methanol for 10 minutes to fix the cells. Thereafter, the cells were stained with 0.1 ml of Giemsa staining solution [Giemsa staining stock solution (Merck Art 9204; manufactured by Merck Inc.) : physiological saline=1 : 10] for 5 minutes. After the staining solution was removed, the residue was washed once with 0.2 ml of water. The pigment was extracted with 0.2 ml of 0.1 N hydrochloric acid and the absorbance at 620 nm was measured with a microplate reader. By comparing the absorbance of untreated cells with those of the cells treated with the test compound at known concentrations, the concentration of the test compound at which the growth of the cells is inhibited by 50% (IC50) was calculated.
structure (smiles),measurement,setting,value
"COc1c(C[C@@H](C)OC(C)=O)c2c3c(C[C@@H](C)OC(C)=O)c(OC)c(=O)c4c(O)cc(OC)c(c5c(OC)cc(O)c(c1=O)c52)c43 [Compound 1, 14,17-di-O-acetyl UCN-1028D]",IC50 Protein Kinase C Inhibitory Activity,Protein Kinase C,1.6 µg/mL
same,IC50,BALB 3T3/H-ras,0.048 µg/mL
"CCCC(=O)O[C@H](C)Cc1c(OC)c(=O)c2c(O)cc(OC)c3c4c(OC)cc(O)c5c(=O)c(OC)c(C[C@@H](C)OC(=O)CCC)c(c1c23)c54 [Compound 2, 14,17-di-O-butyryl UCN-1028D]",IC50 Protein Kinase C Inhibitory Activity,Protein Kinase C,0.14 µg/mL
same,IC50,BALB 3T3/H-ras,0.023 µg/mL
"CCCCCC(=O)O[C@H](C)Cc1c(OC)c(=O)c2c(O)cc(OC)c3c4c(OC)cc(O)c5c(=O)c(OC)c(C[C@@H](C)OC(=O)CCCCC)c(c1c23)c54 [Compound 3, 14,17-di-O-hexanoyl UCN-1028D]",IC50 Protein Kinase C Inhibitory Activity,Protein Kinase C,0.035 µg/mL
same,IC50,BALB 3T3/H-ras,0.12 µg/mL
"CCCCCCC(=O)O[C@H](C)Cc1c(OC)c(=O)c2c(O)cc(OC)c3c4c(OC)cc(O)c5c(=O)c(OC)c(C[C@@H](C)OC(=O)CCCCCC)c(c1c23)c54 [Compound 4, 14,17-di-O-heptanoyl UCN-1028D]",IC50 Protein Kinase C Inhibitory Activity,Protein Kinase C,0.03 µg/mL
same,IC50,BALB 3T3/H-ras,0.52 µg/mL
"CCCCCCCCCC(=O)O[C@H](C)Cc1c(OC)c(=O)c2c(O)cc(OC)c3c4c(OC)cc(O)c5c(=O)c(OC)c(C[C@@H](C)OC(=O)CCCCCCCCC)c(c1c23)c54 [Compound 5, 14,17-di-O-decanoyl UCN-1028D]",IC50 Protein Kinase C Inhibitory Activity,Protein Kinase C,0.068 µg/mL
same,IC50,BALB 3T3/H-ras,7 µg/mL
"CCCCCCCCCCCC(=O)O[C@H](C)Cc1c(OC)c(=O)c2c(O)cc(OC)c3c4c(OC)cc(O)c5c(=O)c(OC)c(C[C@@H](C)OC(=O)CCCCCCCCCCC)c(c1c23)c54 [Compound 6, 14,17-di-O-dodecanoyl UCN-1028D]",IC50 Protein Kinase C Inhibitory Activity,Protein Kinase C,0.15 µg/mL
same,IC50,BALB 3T3/H-ras,4.8 µg/mL
"C=CCCC(=O)O[C@H](C)Cc1c(OC)c(=O)c2c(O)cc(OC)c3c4c(OC)cc(O)c5c(=O)c(OC)c(C[C@@H](C)OC(=O)CCC=C)c(c1c23)c54 [Compound 7, 14,17-di-O-pentenoyl UCN-1028D]",IC50 Protein Kinase C Inhibitory Activity,Protein Kinase C,0.06 µg/mL
same,IC50,BALB 3T3/H-ras,0.17 µg/mL
"COc1c(C[C@@H](C)OC(=O)C2CCCCC2)c2c3c(C[C@@H](C)OC(=O)C4CCCCC4)c(OC)c(=O)c4c(O)cc(OC)c(c5c(OC)cc(O)c(c1=O)c52)c43 [Compound 8, 14,17-di-O-cyclohexanecarbonyl UCN-1028D]",IC50 Protein Kinase C Inhibitory Activity,Protein Kinase C,0.017 µg/mL
same,IC50,BALB 3T3/H-ras,0.56 µg/mL
"COc1c(C[C@@H](C)OC(=O)Cc2ccccc2)c2c3c(C[C@@H](C)OC(=O)Cc4ccccc4)c(OC)c(=O)c4c(O)cc(OC)c(c5c(OC)cc(O)c(c1=O)c52)c43 [Compound 9, 14,17-bis-O-phenylacetyl UCN-1028D]",IC50 Protein Kinase C Inhibitory Activity,Protein Kinase C,0.054 µg/mL
same,IC50,BALB 3T3/H-ras,0.11 µg/mL
"COc1c(C[C@@H](C)OC(=O)CCc2ccccc2)c2c3c(C[C@@H](C)OC(=O)CCc4ccccc4)c(OC)c(=O)c4c(O)cc(OC)c(c5c(OC)cc(O)c(c1=O)c52)c43 [Compound 10, 14,17-bis-O-3-phenylpropionyl UCN-1028D]",IC50 Protein Kinase C Inhibitory Activity,Protein Kinase C,0.045 µg/mL
same,IC50,BALB 3T3/H-ras,0.95 µg/mL
"COc1c(C[C@@H](C)OC(=O)CCCc2ccccc2)c2c3c(C[C@@H](C)OC(=O)CCCc4ccccc4)c(OC)c(=O)c4c(O)cc(OC)c(c5c(OC)cc(O)c(c1=O)c52)c43 [Compound 11, 14,17-bis-O-4-phenylbutyryl UCN-1028D]",IC50 Protein Kinase C Inhibitory Activity,Protein Kinase C,0.035 µg/mL
same,IC50,BALB 3T3/H-ras,2.6 µg/mL
"COc1c(C[C@@H](C)OC(=O)Cc2cccc3ccccc23)c2c3c(C[C@@H](C)OC(=O)Cc4cccc5ccccc45)c(OC)c(=O)c4c(O)cc(OC)c(c5c(OC)cc(O)c(c1=O)c52)c43 [Compound 12, 14,17-bis-O-1-naphthylacetyl UCN-1028D]",IC50 Protein Kinase C Inhibitory Activity,Protein Kinase C,0.05 µg/mL
same,IC50,BALB 3T3/H-ras,1.3 µg/mL
"COc1c(C[C@@H](C)OC(=O)COc2ccccc2)c2c3c(C[C@@H](C)OC(=O)COc4ccccc4)c(OC)c(=O)c4c(O)cc(OC)c(c5c(OC)cc(O)c(c1=O)c52)c43 [Compound 13, 14,17-bis-O-phenyloxyacetyl UCN-1028D]",IC50 Protein Kinase C Inhibitory Activity,Protein Kinase C,0.08 µg/mL
same,IC50,BALB 3T3/H-ras,0.03 µg/mL
"COc1c(C[C@@H](C)OC(=O)[C@@H](N)CC(C)C)c2c3c(C[C@@H](C)OC(=O)[C@@H](N)CC(C)C)c(OC)c(=O)c4c(O)cc(OC)c(c5c(OC)cc(O)c(c1=O)c52)c43 [Compound 14, 14,17-di-O-L-leucyl UCN-1028D bistrifluoroacetate]",IC50 Protein Kinase C Inhibitory Activity,Protein Kinase C,0.21 µg/mL
same,IC50,BALB 3T3/H-ras,0.45 µg/mL
"CC[C@H](C)[C@H](N)C(=O)O[C@H](C)Cc1c(OC)c(=O)c2c(O)cc(OC)c3c4c(OC)cc(O)c5c(=O)c(OC)c(C[C@@H](C)OC(=O)[C@@H](N)[C@@H](C)CC)c(c1c23)c54 [Compound 15, 14,17-di-O-L-isoleucyl UCN-1028D bistrifluoroacetate]",IC50 Protein Kinase C Inhibitory Activity,Protein Kinase C,0.15 µg/mL
same,IC50,BALB 3T3/H-ras,0.28 µg/mL
"COc1c(C[C@@H](C)OC(=O)[C@H](N)c2ccccc2)c2c3c(C[C@@H](C)OC(=O)[C@H](N)c4ccccc4)c(OC)c(=O)c4c(O)cc(OC)c(c5c(OC)cc(O)c(c1=O)c52)c43 [Compound 16, 14,17-di-O-D-phenylglycyl UCN-1028D bistrifluoroacetate]",IC50 Protein Kinase C Inhibitory Activity,Protein Kinase C,0.17 µg/mL
same,IC50,BALB 3T3/H-ras,0.72 µg/mL
"COc1c(C[C@@H](C)OC(=O)[C@@H](N)Cc2ccccc2)c2c3c(C[C@@H](C)OC(=O)[C@@H](N)Cc4ccccc4)c(OC)c(=O)c4c(O)cc(OC)c(c5c(OC)cc(O)c(c1=O)c52)c43 [Compound 17, 14,17-di-O-L-phenylalanyl UCN-1028D bistrifluoroacetate]",IC50 Protein Kinase C Inhibitory Activity,Protein Kinase C,0.088 µg/mL
same,IC50,BALB 3T3/H-ras,0.35 µg/mL
"COc1c(C[C@@H](C)OC(=O)[C@H](N)Cc2ccccc2)c2c3c(C[C@@H](C)OC(=O)[C@H](N)Cc4ccccc4)c(OC)c(=O)c4c(O)cc(OC)c(c5c(OC)cc(O)c(c1=O)c52)c43 [Compound 18, 14,17-di-O-D-phenylalanyl UCN-1028D bistrifluoroacetate]",IC50 Protein Kinase C Inhibitory Activity,Protein Kinase C,0.16 µg/mL
same,IC50,BALB 3T3/H-ras,0.84 µg/mL
"CN[C@@H](Cc1ccccc1)C(=O)O[C@H](C)Cc1c(OC)c(=O)c2c(O)cc(OC)c3c4c(OC)cc(O)c5c(=O)c(OC)c(C[C@@H](C)OC(=O)[C@H](Cc6ccccc6)NC)c(c1c23)c54 [Compound 19, 14,17-bis-O-N-methyl-L-phenylalanyl UCN-1028D bistrifluoroacetate]",IC50 Protein Kinase C Inhibitory Activity,Protein Kinase C,0.1 µg/mL
same,IC50,BALB 3T3/H-ras,0.35 µg/mL
"COc1c(C[C@@H](C)OC(=O)[C@@H]2CCCN2)c2c3c(C[C@@H](C)OC(=O)[C@@H]4CCCN4)c(OC)c(=O)c4c(O)cc(OC)c(c5c(OC)cc(O)c(c1=O)c52)c43 [Compound 20, 14,17-di-O-L-prolyl UCN-1028D bistrifluoroacetate]",IC50 Protein Kinase C Inhibitory Activity,Protein Kinase C,0.33 µg/mL
same,IC50,BALB 3T3/H-ras,3.2 µg/mL
"COc1c(C[C@@H](C)OC(=O)CCCCCN)c2c3c(C[C@@H](C)OC(=O)CCCCCN)c(OC)c(=O)c4c(O)cc(OC)c(c5c(OC)cc(O)c(c1=O)c52)c43 [Compound 21, 14,17-bis-O-6-aminohexanoyl UCN-1028D bis-trifluoroacetate]",IC50 Protein Kinase C Inhibitory Activity,Protein Kinase C,0.08 µg/mL
same,IC50,BALB 3T3/H-ras,2.5 µg/mL
"COc1c(C[C@@H](C)OC(=O)c2ccc(OC(C)=O)cc2)c2c3c(C[C@@H](C)OC(=O)c4ccc(OC(C)=O)cc4)c(OC)c(=O)c4c(O)cc(OC)c(c5c(OC)cc(O)c(c1=O)c52)c43 [Compound 24, 14,17-bis-O-p-acetoxybenzoyl UCN-1028D]",IC50 Protein Kinase C Inhibitory Activity,Protein Kinase C,0.082 µg/mL
same,IC50,BALB 3T3/H-ras,0.048 µg/mL
"COc1c(C[C@@H](C)OC(=O)c2ccc(C#N)cc2)c2c3c(C[C@@H](C)OC(=O)c4ccc(C#N)cc4)c(OC)c(=O)c4c(O)cc(OC)c(c5c(OC)cc(O)c(c1=O)c52)c43 [Compound 25, 14,17-bis-O-p-cyanobenzoyl UCN-1028D]",IC50 Protein Kinase C Inhibitory Activity,Protein Kinase C,0.05 µg/mL
same,IC50,BALB 3T3/H-ras,0.042 µg/mL
"COc1c(C[C@@H](C)OC(=O)c2ccc(O)cc2)c2c3c(C[C@@H](C)OC(=O)c4ccc(O)cc4)c(OC)c(=O)c4c(O)cc(OC)c(c5c(OC)cc(O)c(c1=O)c52)c43 [Compound 26, 14,17-bis-O-p-hydroxybenzoyl UCN-1028D]",IC50 Protein Kinase C Inhibitory Activity,Protein Kinase C,0.084 µg/mL
same,IC50,BALB 3T3/H-ras,0.13 µg/mL
